Activity calls are given as the source filed them. The calls are words filed in the database; no cut-off is given here.

The record followed here is ChEMBL document CHEMBL1158793, “Taxezopidines M and N, taxoids from the Japanese yew, Taxus cuspidata” (J Nat Prod, 2005).

For test [1], the system named is KB. Description: Cytotoxicity against human KB cells at 10 ug/ml. The class given is functional, cell-based.
The test system of test [2] is L1210. Description: Cytotoxicity against mouse L1210 cells at 10 ug/ml. The class given is functional, cell-based.
Test [3] is described as follows: Inhibition of CaCl2-microtubule depolymerization at 50 uM by spectrophotometry.
Test [4] can be described thus: Inhibition of CaCl2-induced microtubule depolymerization at 5 uM by spectrophotometry.

Take `C=C1[C@@H](OC(=O)C[C@H](c2ccccc2)N(C)C)CC[C@@]2(C)[C@@H](OC(C)=O)[C@H](OC(C)=O)C3=C(C)[C@]4(O)C[C@@H]([C@@H](OC(C)=O)[C@H]12)[C@@]3(C)CO4`: the result in test [1] and in test [2] was inactive. Besides, in test [3], the outcome was Active.

As to `CC(=O)O[C@H]1C(=O)[C@@]2(C)[C@H]([C@H](OC(=O)c3ccccc3)[C@]3(O)C[C@H](OC(=O)[C@H](O)[C@@H](NC(=O)c4ccccc4)c4ccccc4)C(C)=C1C3(C)C)[C@]1(OC(C)=O)CO[C@@H]1C[C@@H]2O`, the result in test [4] was Active.

Consider `C=C1[C@@H](OC(=O)C[C@H](c2ccccc2)N(C)C)C[C@H](OC(C)=O)[C@@]2(C)[C@@H](OC(C)=O)[C@H](OC(C)=O)[C@]3(O)[C@@]4(C)CO[C@]3(C)C(=O)C[C@H]4[C@@H](OC(C)=O)[C@H]12`, for which the outcome in test [1] and in test [2] was inactive.
